Data taken from US20040038946A1, “Fullerene-based drugs targeted to bone” (priority 2003, published 2004).
Like-named read-outs stand apart in the source and are kept apart here.

Tests used:
[1] = Constant composition HAP crystal growth inhibition; details: for Rate of HAP crystal growth: 37 °C, uninhibited rate 9.09; for Reduction of HAP crystal growth rate: concentration of 3.1×10^-5 M
Method: Hydroxyapatite seed crystals were prepared from calcium nitrate and potassium dihydrogen phosphate, as detailed elsewhere. The specific surface area, 34.9 m2 g-1, was determined by BET nitrogen adsorption using a 30/70 N2/He mixture (Monosorb, Quantachrome Corp). HAP crystals in the form of a suspension in water (41.8 g L-1) were used for the crystal growth experiments.
Solutions were prepared using triply distilled carbon dioxide-free water and filtered before use through washed 0.22 μm filters (Millipore, Bedford, Mass.). Calcium concentrations were determined either complexometrically by EDTA titration with Eriochrome Black-T as indicator, or by atomic absorption (Perkin-Elmer, model 3100, Norwich, Conn.). Carbon dioxide-free potassium hydroxide solutions were prepared from washed Reagent grade pellets in a nitrogen atmosphere.
Crystal growth experiments were made in magnetically-stirred water-jacketed Pyrex vessels at 37.0±0.05° C. with ionic strength, I=0.15 mol L^−1, adjusted by the addition of sodium chloride. Supersaturated solutions were prepared by introducing calcium chloride solution, followed by potassium dihydrogen phosphate solution. The pH was adjusted to the required value by the slow addition of potassium hydroxide solutions. During the reactions, carbon dioxide was excluded by bubbling with presaturated nitrogen gas. After equilibration, 0.5 mL of the HAP slurry was introduced to initiate the reaction. Since the nucleation and growth of crystals consume solution lattice ions, the lowering of pH was used to trigger the addition of two titrant solutions that served to maintain constant the pH, the concentrations of calcium and phosphate and the ionic strength of the solution. A glass electrode (Orion, model 9101), standardized using two NBS buffer solutions at pH=7.386 and 4.028 at 37° C., was used to control titrant addition through a potentiostat. The total calcium concentration in all experiments was 6.00×10^−4 mol L^−1 with a calcium/phosphate molar ratio of 1.67, so as to achieve a supersaturation with respect to HAP of σ=5.55 (as defined in Eq. (1)), as computed from mass balance, proton dissociation, electroneutrality, and equilibrium expressions involving calcium and phosphate species.
In Eq. (1), v is the number of ions per formula unit of precipitating phase and IP and KSO are, respectively, the ionic and solubility products of HAP.
During the reactions, samples were withdrawn periodically, filtered (0.22 μm Millipore filter) and analyzed for calciwn by atomic absorption and for phosphate spectrophotometrically (Varian, Cary 210) as the phosphovanadomolybdate complex in order to verify the constancy of the solution composition. Solid phases were examined by X-ray powder diffraction, XRD, (Siemens Nicolet/Nic spectrometer, CuK radiation with Ni filter=1.540; 2 from 3o to 45o), by scanning electron microscopy (SEM at 20 kV; JEOL JSM-5300, Noran Instrumental Inc. Middleton, Wis.) and by diffuse reflectance infared fourier transform spectroscopy (FTR, Perkin Elmer 1760×Fr-IR spectrometer). Plots of mineralization were calculated from plots of titrant volumes as a function of time as described previously.
It is quite well established that strong inhibitors of crystal growth, such as the phosphonates, act by blocking, through adsorption, active growth sites at the crystal surfaces. Commonly, inhibition kinetics data are interpreted in terms of a simple Langmuir adsorption model. Assuming that the adsorbed fullerene molecules occupy a fraction, θ, of the active growth sites, thereby preventing them from participating in the growth, the growth rate R can be written in terms of the uninhibited rate Ro (Eq. (2)): […]

[2] = cited from earlier work
[3] = Concentration 1.0 × 10^−6 mol/L

Q: Which results are given for Fullerenol[60] [C60(OH)30]?
A: Rate of HAP crystal growth ([1]; C60(OH)30 0.41 × 10^−6 mol L^−1): 8.31 10^−8 mol min^−1 m^−2; Rate of HAP crystal growth ([1]; C60(OH)30 0.81 × 10^−6 mol L^−1): 7.8 10^−8 mol min^−1 m^−2; Rate of HAP crystal growth ([1]; C60(OH)30 1.22 × 10^−6 mol L^−1): 6.55 10^−8 mol min^−1 m^−2; Rate of HAP crystal growth ([1]; C60(OH)30 1.63 × 10^−6 mol L^−1): 5.94 10^−8 mol min^−1 m^−2; Rate of HAP crystal growth ([1]; C60(OH)30 2.03 × 10^−6 mol L^−1): 5.7 10^−8 mol min^−1 m^−2; Rate of HAP crystal growth ([1]; C60(OH)30 2.44 × 10^−6 mol L^−1): 4.65 10^−8 mol min^−1 m^−2; Rate of HAP crystal growth ([1]; C60(OH)30 2.85 × 10^−6 mol L^−1): 4.07 10^−8 mol min^−1 m^−2; Rate of HAP crystal growth ([1]; C60(OH)30 3.25 × 10^−6 mol L^−1): 3.97 10^−8 mol min^−1 m^−2; Rate of HAP crystal growth ([1]; C60(OH)30 3.66 × 10^−6 mol L^−1): 3.85 10^−8 mol min^−1 m^−2; Rate of HAP crystal growth ([1]; C60(OH)30 4.07 × 10^−6 mol L^−1): 2.64 10^−8 mol min^−1 m^−2; Rate of HAP crystal growth ([1]; C60(OH)30 4.47 × 10^−6 mol L^−1): 2.49 10^−8 mol min^−1 m^−2; Percent Reduction in Growth Rate [1, 3]: 28%; Affinity Constant ([1]; Langmuir adsorption model, slope of Ro/R versus concentration): 414000 L/mol; Reduction of HAP crystal growth rate [1]: 58%

Q: With “4,4-bisphosphono-2-(polyhdroxyl-1,2-dihdro-1,2-methanofullerene[60]-61-carboxamido)butyric Acid [C60(OH)16AMBP]” as the molecule, how does the “Rate of HAP crystal growth” value ([1]; C60(OH)16AMBP 0.39 × 10^−6 mol L^−1) read?
A: 7.67 10^−8 mol min^−1 m^−2

Q: What about the “Rate of HAP crystal growth” value ([1]; C60(OH)16AMBP 0.77 × 10^−6 mol L^−1) of the same molecule?
A: 6.51 10^−8 mol min^−1 m^−2

Q: And the “Rate of HAP crystal growth” value ([1]; C60(OH)16AMBP 1.16 × 10^−6 mol L^−1)?
A: 4.55 10^−8 mol min^−1 m^−2

Q: And the “Rate of HAP crystal growth” value ([1]; C60(OH)16AMBP 1.54 × 10^−6 mol L^−1)?
A: 3.77 10^−8 mol min^−1 m^−2

Q: What about the “Rate of HAP crystal growth” value ([1]; C60(OH)16AMBP 1.93 × 10^−6 mol L^−1) of the same molecule?
A: 2.83 10^−8 mol min^−1 m^−2

Q: What about the “Rate of HAP crystal growth” value ([1]; C60(OH)16AMBP 2.32 × 10^−6 mol L^−1) of the same molecule?
A: 2.46 10^−8 mol min^−1 m^−2

Q: And the “Rate of HAP crystal growth” value ([1]; C60(OH)16AMBP 2.7 × 10^−6 mol L^−1)?
A: 1.92 10^−8 mol min^−1 m^−2

Q: What about the “Rate of HAP crystal growth” value ([1]; C60(OH)16AMBP 3.09 × 10^−6 mol L^−1) of the same molecule?
A: 1.57 10^−8 mol min^−1 m^−2

Q: What about the “Rate of HAP crystal growth” value ([1]; C60(OH)16AMBP 3.47 × 10^−6 mol L^−1) of the same molecule?
A: 1.23 10^−8 mol min^−1 m^−2

Q: And the “Percent Reduction in Growth Rate” value [1, 3]?
A: 50%

Q: And the “Percent Reduction in Growth Rate” value ([1]; Concentration 3.5 × 10^−6 mol/L)?
A: 87%

Q: What about the “Reduction of HAP crystal growth rate” value [1] of the same molecule?
A: 87%

Q: What does the source list for `CC(O)(P(=O)(O)O)P(=O)(O)O` [CH3C(OH)[P(O)(OH)2]2, 1-hydroxyethylidene-1,1-diphosphonic acid]?
A: Percent Reduction in Growth Rate [2, 3]: 69^ref 29%; Affinity Constant [2]: 13.3 × 10^5 ref 29 L mol^−1
